Test results as given in article PMC4689404, “2-Benzazolyl-4-Piperazin-1-Ylsulfonylbenzenecarbohydroxamic Acids as Novel Selective Histone Deacetylase-6 Inhibitors with Antiproliferative Activity” (PLoS ONE, 2015).
Like-named read-outs stand apart in the source and are kept apart here. Each block holds one molecule with its values, some of them ahead of it.

Key:
[1] = tested on: HCC4017; experiment: MTS viability assay; assay type: cell-based, human; settings: for IC50: Patient A cancer line, MTS, 4 days, read-out: Antiproliferative activity IC50, HCC4017; for Selectivity (HBEC-30KT vs HCC4017): Patient A
Protocol: (§1) Immortalized normal human bronchial epithelial cells (also provided by Dr. John D. Minna) were cultured in KSFM supplemented with pituitary extract and EGF. For viability assays, cells were plated on 96 well plates and grown overnight. Cells were then exposed to increasing doses of the indicated compounds for 4 days and their viability assayed using the Promega Cell Titer 96 AQueous One kit per the manufacturer’s protocol. All doses were tested in 4–8 replicates. IC50 values were calculated using the in-house software DIVISA.

[2] = tested on: HCC4018; experiment: MTS viability assay; assay type: cell-based, human; settings: for IC50: Patient B cancer line, MTS, 4 days, read-out: Antiproliferative activity IC50, HCC4018; for Selectivity (HBEC-34KT vs HCC4018): Patient B
Protocol: as §1

[3] = tested on: HBEC-30KT; experiment: MTS viability assay; assay type: cell-based, human; settings: Patient A normal line, 4 days, read-out: Antiproliferative activity IC50, HBEC-30KT
Protocol: as §1, with “Lung cancer cells (kindly provided by Dr. John D. Minna, [13, 21]) were maintained in RPMI 1640 media supplemented with 10% FBS. Immortalized” for “Immortalized”

[4] = tested on: HBEC-34KT; experiment: MTS viability assay; assay type: cell-based, human; settings: Patient B normal line, 4 days, read-out: Antiproliferative activity IC50, HBEC-34KT
Protocol: as §1, with “Lung cancer cells (kindly provided by Dr. John D. Minna, [13, 21]) were maintained in RPMI 1640 media supplemented with 10% FBS. Immortalized” for “Immortalized”

[5] = tested on: HDAC1; settings: read-out: HDAC1 IC50; Table 4; cited from earlier work
[6] = tested on: HDAC6; settings: read-out: HDAC6 IC50; Table 4; cited from earlier work
[7] = tested on: epigenetically silenced GFP transgene in LDR cells; experiment: locus derepression (LDR) assay, GFP induction; assay type: cell-based; design: key to GFP Induc.: -: —negative; settings: for GFP Induc.: Fig 4
Protocol: LDR cells were maintained in DMEM with L-glutamine and high glucose, 1 mM sodium pyruvate, 0.1 mM MEM non-essential amino acids, 1% v/v penicillin-streptomycin and 10% heat inactivated FBS. Cells were seeded on glass bottom chambers at low-medium density and allowed to attach overnight. Compounds were then added for 24h at the indicated dose and cells were imaged under a fluorescent microscope equipped with a camera using a 20 or 40X objective. All images shown were exposed for identical time.

[8] = molecular target: T1, partially purified HDAC1 from mouse A20 cells (Mus musculus, UniProt O09106); experiment: HDAC1 activity assay, partially purified enzyme, [3H]acetate-prelabeled histones; assay type: biochemical; settings: Table 3; partially purified HDAC1; read-out: HDAC1 IC50
T1 construct: from mouse A20 cells was used as enzyme source; endogenous in cells; host or cells: mouse A20 cells
T1 sequence (O09106 whole entry): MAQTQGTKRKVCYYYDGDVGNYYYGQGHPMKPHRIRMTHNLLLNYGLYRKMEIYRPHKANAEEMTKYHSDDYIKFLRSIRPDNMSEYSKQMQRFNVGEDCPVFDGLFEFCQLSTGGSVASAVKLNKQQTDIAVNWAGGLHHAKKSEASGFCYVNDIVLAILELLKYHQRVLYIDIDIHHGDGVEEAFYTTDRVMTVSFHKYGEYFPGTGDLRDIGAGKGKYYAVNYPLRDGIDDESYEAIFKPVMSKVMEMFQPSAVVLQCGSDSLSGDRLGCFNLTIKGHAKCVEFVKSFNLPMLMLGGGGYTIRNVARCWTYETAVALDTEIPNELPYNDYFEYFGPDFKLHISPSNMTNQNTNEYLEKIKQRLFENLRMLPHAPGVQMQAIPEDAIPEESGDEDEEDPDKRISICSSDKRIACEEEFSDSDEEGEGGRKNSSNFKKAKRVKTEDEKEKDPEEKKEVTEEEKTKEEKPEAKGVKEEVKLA
Source text: For inhibition assays, partially purified HDAC1 (70–80 fold enriched relative to crude samples) from mouse A20 cells was used as enzyme source. HDAC1 activity was purified by a combination of anion exchange chromatography (Mono Q), affinity chromatography (Poly-lysin agarose, Heparin Sepharose) and TSK size exclusion chromatography (Jesacher and Loidl, unpublished). HDAC1 protein was identified by immunoblotting using anti mouse HDAC1 antibodies (collaboration with Zymed Laboratories, Inc., San Francisco, California, USA). HDAC activity was determined as described by Sendra et al., [20] using [^3H]acetate-prelabeled chicken reticulocyte histones as substrate. 50 μL of mouse HDAC1 were incubated with different concentrations of compounds for 10 min on ice and 10 μL of total [^3H] acetate pre-labeled chicken reticulocyte histones (4 mg/mL) were added, resulting in a concentration of 41 μM. This mixture was incubated at 37°C for 1 h. The reaction was stopped by addition of 50 μL of 1 M HCl/0.4 M acetylacetate and 1 mL ethylacetate. After centrifugation at 10000 x g for 5 min an aliquot of 600 μL of the upper phase was counted for radioactivity in 3 mL liquid scintillation cocktail.

[9] = tested on: HDAC1; settings: Table 4; cited from earlier work
[10] = molecular target: T2, recombinant HDAC1 (Homo sapiens, UniProt Q13547); experiment: comparative HDAC inhibition assay (Millipore fluorometric kit); assay type: biochemical; settings: recombinant HDAC1, fluorometric substrate; Table 4
T2 construct: purchased Epigenetek
T2 sequence (Q13547 whole entry): as the sequence (O09106 whole entry) above, with K8R, E399D, D424E counted along it
Protocol: (§2) For the direct comparison of HDAC1 vs. HDAC6 inhibition, HDAC activity was analyzed using the HDAC Assay Kit from Millipore (17–356). Briefly, recombinant HDAC1 or recombinant HDAC6 (both purchased from Epigenetek, Purity of HDAC1 is more than 60% and purity HDAC6 is more than 85%). was incubated with the fluorometric HDAC substrate according to the manufacturer’s protocol in the presence of DMSO vehicle or increase compound doses. In a secondary activator reaction, the fluorophore is only cleaved from the deacetylated substrate, allowing for quantification. Fluorescence was quantified on a FLUOstar-Optima or a FLUOstar Omega plate reader (BMG Biosciences).

[11] = molecular target: T3, recombinant HDAC6 (Homo sapiens, UniProt Q9UBN7); experiment: as above; assay type: biochemical; settings: for IC50: read-out: HDAC6 IC50
T3 construct: purchased Epigenetek
T3 sequence (Q9UBN7 1-1215): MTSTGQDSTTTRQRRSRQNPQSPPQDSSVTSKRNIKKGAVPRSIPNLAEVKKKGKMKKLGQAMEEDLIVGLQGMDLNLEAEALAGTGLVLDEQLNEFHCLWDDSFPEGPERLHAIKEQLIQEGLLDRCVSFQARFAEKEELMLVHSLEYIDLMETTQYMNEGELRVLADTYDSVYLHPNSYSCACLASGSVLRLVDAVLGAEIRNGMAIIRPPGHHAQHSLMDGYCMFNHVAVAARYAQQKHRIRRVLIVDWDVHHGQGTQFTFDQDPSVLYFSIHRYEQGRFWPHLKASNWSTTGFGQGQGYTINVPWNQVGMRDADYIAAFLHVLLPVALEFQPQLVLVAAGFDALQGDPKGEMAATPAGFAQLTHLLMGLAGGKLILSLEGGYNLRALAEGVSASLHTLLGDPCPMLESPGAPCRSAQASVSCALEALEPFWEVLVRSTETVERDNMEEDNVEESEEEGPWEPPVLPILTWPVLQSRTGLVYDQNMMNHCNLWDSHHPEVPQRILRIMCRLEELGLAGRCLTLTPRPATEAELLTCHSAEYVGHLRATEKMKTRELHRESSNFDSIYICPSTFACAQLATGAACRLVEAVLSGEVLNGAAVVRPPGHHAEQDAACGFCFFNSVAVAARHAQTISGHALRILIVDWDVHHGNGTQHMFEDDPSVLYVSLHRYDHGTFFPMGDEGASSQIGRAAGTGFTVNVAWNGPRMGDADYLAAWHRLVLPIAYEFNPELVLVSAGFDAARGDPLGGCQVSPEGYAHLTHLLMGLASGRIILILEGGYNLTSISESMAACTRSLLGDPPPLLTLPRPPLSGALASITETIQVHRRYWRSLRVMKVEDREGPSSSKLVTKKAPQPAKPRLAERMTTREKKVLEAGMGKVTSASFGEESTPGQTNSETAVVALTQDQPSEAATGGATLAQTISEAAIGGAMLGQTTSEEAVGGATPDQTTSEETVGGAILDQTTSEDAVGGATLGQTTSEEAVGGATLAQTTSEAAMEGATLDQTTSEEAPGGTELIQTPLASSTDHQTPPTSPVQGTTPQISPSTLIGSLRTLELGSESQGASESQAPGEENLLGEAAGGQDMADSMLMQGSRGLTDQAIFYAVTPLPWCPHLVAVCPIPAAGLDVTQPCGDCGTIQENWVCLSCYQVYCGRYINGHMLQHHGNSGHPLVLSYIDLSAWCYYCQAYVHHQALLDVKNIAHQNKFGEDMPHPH
Protocol: as §2

- IC50 [8]: 140000 nM
- melting point: 207 to 210 °C
Compound: O=C(NO)c1cccc(S(=O)(=O)N2CCN(c3nc4ccccc4s3)CC2)c1 [Compound 8d, 3-(4-Benzothiazol-2-yl-piperazin-1-sulfonyl)-N -hydroxy-benzamid]
- GFP Induc. [7]: -

- melting point: 349 to 350 °C
Compound: O=C(NO)c1cccc(S(=O)(=O)N2CCN(c3nc4ccccc4[nH]3)CC2)c1 [Compound 8a, 3-[4(1H -Benzimidazol-2-yl)-piperazin-1-sulfonyl]-N -hydroxy-benzamid]
- GFP Induc. [7]: -

- IC50 [8]: 316000 nM
- melting point: 167 to 169 °C
Compound: Cn1c(N2CCN(S(=O)(=O)c3cccc(C(=O)NO)c3)CC2)nc2ccccc21 [Compound 8b, 3-[4-(1-Methyl-Benzimidazol-2-yl)-piperazin-1-sulfonyl]-N -hydroxy-benzamid]
- GFP Induc. [7]: -

- IC50 [8]: 216000 nM
- melting point: 257 to 262 °C
Compound: O=C(NO)c1cccc(S(=O)(=O)N2CCN(c3nc4ccccc4o3)CC2)c1 [Compound 8c, 3-(4-Benzoxazol-2-yl-piperazin-1-sulfonyl)-N -hydroxy-benzamid]
- GFP Induc. [7]: -

- IC50 [8]: 12400 nM
- IC50 ([1]; Homo sapiens, HCC4017, 96 h): > 10000 nM
- IC50 ([2]; Homo sapiens, 96 h): > 10000 nM
- IC50 [10]: 6000 ± 2900 nM
- IC50 ([11]; Table 3): 1000 nM
- Selectivity Index HDAC1/HDAC6 ([11]; Table 4): 6.5
- IC50 ([11]; recombinant HDAC6, fluorometric substrate, Table 4): 930 ± 750 nM
- melting point: 382 to 383 °C (dec.)
Compound: O=C(NO)c1ccc(S(=O)(=O)N2CCN(c3nc4ccccc4[nH]3)CC2)cc1 [Compound 9a, 4-[4(1H-Benzimidazol-2-yl)-pipreazin-1-sulfonyl]-N-hydroxy-benzamid]
- GFP induction / activity in the LDR assay [7]: inactive
- GFP Induc. [7]: -
- cellular activity ([1]; MTS viability, lung cancer and normal lines): no cellular activity
- IC50 ([3]; Homo sapiens, 96 h): > 10000 nM
- IC50 ([4]; Homo sapiens, 96 h): > 10000 nM

Second part, the molecule before the results:

Compound: CC(/C=C/C(=O)NO)=C\[C@@H](C)C(=O)c1ccc(N(C)C)cc1 [TSA, trichostatin A, reference compound]
- IC50 [1]: 73 nM
- IC50 [2]: 23 nM
- IC50 [3]: 285 nM
- IC50 [4]: 346 nM
- IC50 [6]: 8.6 ± 1.4 nM

Compound: CCC(=O)CCCCC[C@@H]1NC(=O)[C@H]2CCCCN2C(=O)[C@H]([C@@H](C)CC)NC(=O)[C@H](Cc2cn(OC)c3ccccc23)NC1=O [Apicidin, reference compound]
- IC50 ([1]; Homo sapiens, HCC4017, 96 h): 120 nM
- Selectivity (HBEC-30KT vs HCC4017) [1]: 0.75
- IC50 ([2]; Homo sapiens, 96 h): 30 nM
- Selectivity (HBEC-34KT vs HCC4018) [2]: 26.3
- selectivity higher by a factor compared to compounds 9b-d ([2]; cells derived from patient B): 7–13 fold
- IC50 ([3]; Homo sapiens, 96 h): 90 nM
- IC50 ([4]; Homo sapiens, 96 h): 790 nM

Compound: C/C=C1\NC(=O)[C@H]2CSSCC/C=C/[C@H](CC(=O)N[C@H](C(C)C)C(=O)N2)OC(=O)[C@H](C(C)C)NC1=O [Depsi., Depsipeptide, reference compound]
- Selectivity (HBEC-30KT vs HCC4017) [1]: 0.14
- IC50 [1]: 6.5 nM
- toxicity to normal vs patient-matched cancer cells ([1]; both paired cell lines): more toxic to normal cells than to the patient-matched cancer cells
- Selectivity (HBEC-34KT vs HCC4018) [2]: 0.31
- IC50 [2]: 4.2 nM
- IC50 [3]: 0.9 nM
- IC50 [4]: 1.3 nM
